Type in all cases: in vivo
The test system of assay [1] is IPOHE. In words: Pre-emergence biological efficacy. The following applies: Ipomoea hederacea, 312 h, evaluated after 13 days, read-out: damage to plant (100=total damage to plant; 0=no damage to plant). As to the method: (§1) Seeds of weeds and/or crops were sown in standard soil in pots. After cultivation for one day under controlled conditions in a glasshouse (at 24/19° C., day/night; 16 hours light), the plants were sprayed with an aqueous spray solution derived from the formulation of the technical active ingredient in a small amount of acetone and a special solvent and emulsifier mixture referred to as IF50 (11.12% Emulsogen EL360 TM+44.44% N-methylpyrrolidone+44.44% Dowanol DPM glycol ether), to create a 50g/l solution which was then diluted using 0.2% Genapol XO80 as diluent to give the desired final dose of test compound.
(§2) The test plants were then grown under controlled conditions in the glasshouse (at 24/18° C., day/night; 15 hours light; 50% humidity) and watered twice daily. After 13 days the test was evaluated (100=total damage to plant; 0=no damage to plant).

Assay [2] deals with ECHCG. In words: Pre-emergence biological efficacy. To be noted: Echinochloa crus-galli, 312 h, evaluated after 13 days, read-out: damage to plant (100=total damage to plant; 0=no damage to plant). On the procedure: as §1, §2
Assay [3] relates to AMAPA. The assay is described as follows: Pre-emergence biological efficacy. The following applies: Amaranthus palmeri, 312 h, evaluated after 13 days, read-out: damage to plant (100=total damage to plant; 0=no damage to plant). On the procedure:
as §1, §2

Assay [4] relates to LOLPE. In words: Pre-emergence biological efficacy. To be noted: Lolium perenne, 312 h, evaluated after 13 days, read-out: damage to plant (100=total damage to plant; 0=no damage to plant). On the procedure: as §1, §2
Assay [5] has as its system EPHHL. In words: Pre-emergence biological efficacy. To be noted: Euphorbia heterophylla, 312 h, evaluated after 13 days, read-out: damage to plant (100=total damage to plant; 0=no damage to plant). As to the method: as §1, §2
The test system of assay [6] is SETFA. In words: Pre-emergence biological efficacy. To be noted: Setaria faberi, 312 h, evaluated after 13 days, read-out: damage to plant (100=total damage to plant; 0=no damage to plant). As to the method: as §1, §2
In another assay the test system is DIGSA. In words: Post-emergence biological efficacy. To be noted: Digitaria sanguinalis, 312 h, evaluated after 13 days, read-out: damage to plant (100=total damage to plant; 0=no damage to plant). On the procedure: as §1, with “14 days” for “one day”
(§3) The test plants were then grown under controlled conditions in the glasshouse (at 24/18° C., day/night; 15 hours light; 50% humidity)and watered twice daily. After 13 days the test was evaluated (100=total damage to plant; 0=no damage to plant).

In assay [7] the test system is IPOHE. In words: Post-emergence biological efficacy. To be noted: Ipomoea hederacea, 312 h, evaluated after 13 days, read-out: damage to plant (100=total damage to plant; 0=no damage to plant). As to the method:
as §1, with “14 days” for “one day”
as §3

Assay [8] has as its system ECHCG. In words: Post-emergence biological efficacy. The following applies: Echinochloa crus-galli, 312 h, evaluated after 13 days, read-out: damage to plant (100=total damage to plant; 0=no damage to plant). On the procedure: as §1, with “14 days” for “one day”
as §3

For assay [9], the system named is AMAPA. In words: Post-emergence biological efficacy. The following applies: Amaranthus palmeri, 312 h, evaluated after 13 days, read-out: damage to plant (100=total damage to plant; 0=no damage to plant). As to the method:
as §1, with “14 days” for “one day”
as §3

The test system of assay [10] is LOLPE. In words: Post-emergence biological efficacy. The following applies: Lolium perenne, 312 h, evaluated after 13 days, read-out: damage to plant (100=total damage to plant; 0=no damage to plant). On the procedure: as §1, with “14 days” for “one day”
as §3

In assay [11] the test system is EPHHL. In words: Post-emergence biological efficacy. To be noted: Euphorbia heterophylla, 312 h, evaluated after 13 days, read-out: damage to plant (100=total damage to plant; 0=no damage to plant). On the procedure: as §1, with “14 days” for “one day”
as §3

The subject of a further assay is ELEIN. In words: Post-emergence biological efficacy. The following applies: 312 h, evaluated after 13 days, read-out: damage to plant (100=total damage to plant; 0=no damage to plant). As to the method:
as §1, with “14 days” for “one day”
as §3

Assay [12] relates to SETFA. The assay is described as follows: Post-emergence biological efficacy. The following applies: Setaria faberi, 312 h, evaluated after 13 days, read-out: damage to plant (100=total damage to plant; 0=no damage to plant). As to the method: as §1, with “14 days” for “one day”
as §3

The subject of a further assay is CHEAL. The assay is described as follows: Post-emergence biological efficacy. The following applies: Chenopodium album, 312 h, evaluated after 13 days, read-out: damage to plant (100=total damage to plant; 0=no damage to plant). As to the method: as §1, with “14 days” for “one day”
as §3

Regarding `CCOC(=O)C1(C)CC(c2cc(-c3ncc(C(F)(F)F)cc3Br)c(F)cc2Cl)=NO1` (stereo not drawn) [Compound 1-571, Ethyl 3-[5-[3-bromo-5-(trifluoromethyl)-2-pyridyl]-2-chloro-4-fluoro-phenyl]-5-methyl-4H-isoxazole-5-carboxylate], the pest or weed control at 250 g/ha with IPOHE [1] amounted to 0%; with ECHCG [2] it was 10%; in the assay with AMAPA [3] it was 100%; with LOLPE [4] it was 70%; in the assay with EPHHL [5] it was 0%; in the assay on SETFA [6] it was 10%. The pest or weed control at 250 g/ha in the assay on DIGSA worked out at 60%; in the assay with IPOHE [7] it was 70%; in the assay with ECHCG [8] it was 30%; with AMAPA [9], 100%; with LOLPE [10], 90%; in the assay with EPHHL [11] it was 100%. The pest or weed control at 250 g/ha in the assay on ELEIN is 90%; in the assay with SETFA [12], 90%; in the assay with CHEAL, 100%.
Regarding `CCOC(=O)C1(C)CC(c2cc(-c3cnc(F)c(OC)c3)c(F)cc2Cl)=NO1` (stereo not drawn) [Compound 1-415, Ethyl 3-[2-chloro-4-fluoro-5-(6-fluoro-5-methoxy-3-pyridyl)-phenyl]-5-methyl-4H-isoxazole-5-carboxylate], the pest or weed control at 250 g/ha with IPOHE [1], with ECHCG [2], in the assay on AMAPA [3], with LOLPE [4], with EPHHL [5] and with SETFA [6] was 0% throughout. Besides, the pest or weed control at 250 g/ha was found to be 40% in the assay on DIGSA; 90% in the assay with IPOHE [7]; 70% with ECHCG [8]; 100% with AMAPA [9]; 20% in the assay on LOLPE [10]; 90% in the assay with EPHHL [11]. For the same molecule, the figures for the pest or weed control at 250 g/ha in the assay with ELEIN, in the assay on SETFA [12] and in the assay on CHEAL were 70%, 90% and 100%, respectively.
As for `CCOC(=O)C1(C)CC(c2cc(-c3cc(C)cc(F)n3)c(F)cc2Cl)=NO1` (stereo not drawn) [Compound 1-367, Ethyl 3-[2-chloro-4-fluoro-5-(6-fluoro-4-methyl-2-pyridyl)-phenyl]-5-methyl-4H-isoxazole-5-carboxylate], the pest or weed control at 250 g/ha in the assay with IPOHE [1], with ECHCG [2], with AMAPA [3], in the assay with LOLPE [4], in the assay on EPHHL [5] and in the assay with SETFA [6] was 0% in each case. In addition, the pest or weed control at 250 g/ha was 50% in the assay with DIGSA; 40% with IPOHE [7]; 40% with ECHCG [8]; 0% with AMAPA [9]; 0% in the assay on LOLPE [10]; 30% with EPHHL [11]. The values for the pest or weed control at 250 g/ha in the assay with ELEIN, with SETFA [12] and in the assay on CHEAL were 20%, 40% and 20%, respectively.
For `CCOC(=O)C1(C)CC(c2cc(-c3cnc4ccccc4c3)c(F)cc2Cl)=NO1` (stereo not drawn) [Compound 1-439, Ethyl 3-[2-chloro-4-fluoro-5-(3-quinolyl)-phenyl]-5-methyl-4H-isoxazole-5-carboxylate], the pest or weed control at 250 g/ha is 10% with IPOHE [1]; 30% in the assay on ECHCG [2]; 50% in the assay with AMAPA [3]; 20% in the assay on LOLPE [4]; 10% in the assay on EPHHL [5]; 20% in the assay on SETFA [6]. Besides, the pest or weed control at 250 g/ha was determined as 30% in the assay with DIGSA; 40% in the assay with IPOHE [7]; 30% in the assay on ECHCG [8]; 70% in the assay on AMAPA [9]; 20% with LOLPE [10]; 40% with EPHHL [11]. Besides, the figures for the pest or weed control at 250 g/ha with ELEIN, in the assay with SETFA [12] and in the assay with CHEAL were 50%, 30% and 50%, respectively.
For the molecule `CCOC(=O)C1(C)CC(c2cc(-c3ccnc(Cl)c3Cl)c(F)cc2Cl)=NO1` (stereo not drawn) [Compound 1-535, Ethyl 3-[2-chloro-5-(2,3-dichloro-4-pyridyl)-4-fluoro-phenyl]-5-methyl-4H-isoxazole-5-carboxylate], the pest or weed control at 250 g/ha in the assay with IPOHE [1] came out at 40%; with ECHCG [2] it was 10%; in the assay with LOLPE [4] it was 0%; in the assay with EPHHL [5] it was 0%; in the assay with SETFA [6] it was 40%; with DIGSA, 90%. In addition, the pest or weed control at 250 g/ha came to 100% in the assay on IPOHE [7]; 80% with ECHCG [8]; 100% with AMAPA [9]; 50% with LOLPE [10]; 100% in the assay with EPHHL [11]; 80% in the assay on ELEIN. Moreover, the pest or weed control at 250 g/ha in the assay on SETFA [12] and in the assay with CHEAL was 100% throughout.
On to `CCOC(=O)C1(C)CC(c2cc(-c3cc(C(F)(F)F)cnc3Br)c(F)cc2Cl)=NO1` (stereo not drawn) [Compound 1-835, Ethyl 3-[5-[2-bromo-5-(trifluoromethyl)-3-pyridyl]-2-chloro-4-fluoro-phenyl]-5-methyl-4H-isoxazole-5-carboxylate], for which the pest or weed control at 250 g/ha was found to be 10% in the assay with IPOHE [1]; 0% in the assay with ECHCG [2]; 70% in the assay on AMAPA [3]; 0% in the assay on LOLPE [4]; 0% with EPHHL [5]; 0% with SETFA [6].
As for `CCOC(=O)C1(C)CC(c2cc(-c3cnc(C(F)(F)F)cn3)c(F)cc2Cl)=NO1` (stereo not drawn) [Compound 1-751, Ethyl 3-[2-chloro-4-fluoro-5-[5-(trifluoromethyl)pyrazin-2-yl]phenyl]-5-methyl-4H-isoxazole-5-carboxylate], the pest or weed control at 250 g/ha in the assay with IPOHE [1] amounted to 50%; in the assay on ECHCG [2], 50%; in the assay on AMAPA [3] it was 20%; in the assay with LOLPE [4], 20%; in the assay on SETFA [6], 40%; with DIGSA, 100%. Further, the pest or weed control at 250 g/ha in the assay on IPOHE [7] amounted to 100%; in the assay on ECHCG [8] it was 100%; in the assay on AMAPA [9], 100%; in the assay with LOLPE [10], 70%; in the assay on EPHHL [11], 100%; with ELEIN, 100%. Besides, the pest or weed control at 250 g/ha with SETFA [12] and in the assay on CHEAL was 100% each time.
Turning to `CCOC(=O)C1(C)CC(c2cc(-c3ccc(OC)nn3)c(F)cc2Cl)=NO1` (stereo not drawn) [Compound 1-703, Ethyl 3-[2-chloro-4-fluoro-5-(6-methoxypyridazin-3-yl)phenyl]-5-methyl-4H-isoxazole-5-carboxylate], the pest or weed control at 250 g/ha with IPOHE [1] is 0%; with ECHCG [2] it was 0%; in the assay on LOLPE [4], 0%; in the assay with EPHHL [5], 0%; with SETFA [6], 0%; in the assay with DIGSA it was 70%. Besides, the pest or weed control at 250 g/ha in the assay with IPOHE [7] was found to be 60%; with ECHCG [8] it was 80%; in the assay with AMAPA [9], 100%; with LOLPE [10], 70%; in the assay on EPHHL [11], 100%; in the assay on ELEIN, 70%. Besides, the values for the pest or weed control at 250 g/ha in the assay on SETFA [12] and with CHEAL were 70% and 100%, respectively.

The values are drawn from patent US20240124432A1, “HERBICIDAL COMPOUNDS” (SYNGENTA CROP PROTECTION AG, priority 2020, published 2024).
